The results in this text go back to patent US3988364A, “Novel N,N-di-substituted amidines and several acid-addition salts thereof” (Toyo Jozo Kabushiki Kaisha, priority 1972, dated 1976).

Structures can show the parent of a compound that is named as a salt. Where two headings read alike, the source gives them in different places.

Data set [1] has as its system dogs. Put plainly: Antitussive activity (50%-antitussive effective dose AtD50; efficiency ratio relative to codeine phosphate). Format: in vivo. Conditions: for Antitussive Ratio: efficiency ratio relative to codeine phosphate; for ED50: Canis lupus familiaris, read-out: AtD50 (50%-antitussive effective dose). The procedure: route of administration:
From the efficiency rate obtained upon each administration step, 50%-antitussive effective dose (AtD50) was calculated according to the Litchfield-Wilcoxon method. Further, efficiency ratio relative to codeine phosphate was also determined.

The nature of data set [2]: in vivo. Format: in vivo. Particulars: mouse, in vivo, sc, male ddy mice, subcutaneous injection, Litchfield-Wilcoxon.
Text: test animals: more than five groups, each group
consisting of five male mice of ddy-
Setting [3] is: intravenous injection, Litchfield-Wilcoxon method.
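Throughout, for LD50: animals allocated into more than five groups, with five mice per group.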

Take `Cc1cccc(NC(=NC2CCCCC2)c2ccccc2)c1C` [Compound 4, hydrochloric acid salt of N-cyclohexyl, N'-2,3-xylyl-benzamidine]: the “Antitussive Ratio” value in data set [1] (intravenous injection) was 1.21. Besides, the median lethal dose (LD50) – broadly, the dose at which mortality reaches 50% – at 72 h in data set [2] worked out at 117 mg/kg.
In the case of `Cc1ccc(N=C(NC2CCCCC2)c2ccccc2C)cc1.Cl` [Compound 21, N-cyclohexyl, N'-p-tolyl-o-toluamidine hydrochloride], the ED50 in data set [1] (setting [3]) is 3.58 mg/kg. The compound also registered an LD50 at 72 h in data set [2] of 160 mg/kg.
Turning to `COc1cccc(N=C(NC2CCCCC2)c2ccccc2)c1.Cl` [Compound 6, N-cyclohexyl, N'-m-methoxyphenyl-benzamidine hydrochloride], the “Antitussive Ratio” value in data set [1] (intravenous injection) came out at 1.20. The LD50 at 72 h in data set [2] stood at 78 mg/kg.
Turning to `c1ccc(C(=NC2CCCCC2)Nc2cccc3ccccc23)cc1` [Compound 7, N-cyclohexyl, N'-α-naphtyl-benzamidine hydrochloride], in data set [1] (intravenous injection), the “Antitussive Ratio” value is given as 0.79. Further, the 50% lethal dose (LD50) at 72 h in data set [2] was greater than 800 mg/kg.
In the case of `COc1cccc(N=C(NC2CCCCC2)c2ccc(C)cc2)c1.Cl` [Compound 33, N-cyclohexyl, N'-m-methoxyphenyl-p-toluamidine hydrochloride], the ED50 in data set [1] (setting [3]) stood at 5.15 mg/kg. Moreover, in data set [2], the LD50 at 72 h was found to be 600 mg/kg.
For `Cc1cc(C)cc(N=C(NC2CCCCC2)c2ccccc2)c1.Cl` [Compound 43, N-cyclohexyl, N'-3,5-xylyl-benzamidine hydrochloride] the same measures were 3.58 mg/kg and 660 mg/kg.
The matching figures for `COc1ccccc1C(=Nc1ccccc1C)NC1CCCCC1.Cl` [Compound 36, N-cyclohexyl, N'-o-tolyl-o-methoxy-benzamidine hydrochloride]: 4.29 mg/kg and 100 mg/kg.
The matching figures for `Cc1ccc(C(=Nc2ccccc2C)NC2CCCCC2)cc1.Cl` [Compound 29, N-cyclohexyl, N'-o-tolyl-p-toluamidine hydrochloride]: 2.48 mg/kg and 620 mg/kg.
With `Cc1ccccc1N=C(NC1CCCCC1)c1ccccc1C.Cl` [Compound 19, N-cyclohexyl, N'-o-tolyl-o-toluamidine hydrochloride], the ED50 in data set [1] (setting [3]) is 5.15 mg/kg. For the same compound, the LD50 at 72 h in data set [2] came to 650 mg/kg.
For `Cc1cccc(C(=Nc2ccccc2C)NC2CCCCC2)c1.Cl` [Compound 26, N-cyclohexyl, N'-o-tolyl-m-toluamidine hydrochloride] the same measures were 2.98 mg/kg and 740 mg/kg.
For `Cc1cc(C)c(NC(=NC2CCCCC2)c2ccccc2)c(C)c1` [Compound 46, N-cyclohexyl, N'-2,4,6-trimethyl-phenyl-benzamidine hydrochloride] the same measures were 5.15 mg/kg and 120 mg/kg.
For `COc1cccc(N=C(NC2CCCCC2)c2ccccc2C)c1.O=C(O)C(=O)O` [Compound 24, N-cyclohexyl, N'-m-methoxyphenyl-o-toluamidine oxalate] the same measures were 5.15 mg/kg and 891 mg/kg.
For the compound `CCc1ccc(N=C(NC2CCCCC2)c2ccccc2)cc1.Cl` [Compound 3, N-cyclohexyl, N'-p-ethylphenyl-benzamidine hydrochloride], the “Antitussive Ratio” value in data set [1] (intravenous injection) worked out at 0.95. The compound further came in with an LD50 at 72 h in data set [2] of 218 mg/kg.
As to `CCc1cccc(N=C(NC2CCCCC2)c2ccccc2)c1.Cl` [Compound 44, N-cyclohexyl, N'-m-ethylphenyl-benzamidine hydrochloride], in data set [1] (setting [3]), the ED50 was determined as 4.29 mg/kg. Besides, the LD50 at 72 h in data set [2] was found to be 900 mg/kg.
`COc1ccccc1N=C(NC1CCCCC1)c1ccccc1.Cl` [Compound 5, N-cyclohexyl, N'-o-methoxyphenyl-benzamidine hydrochloride]: the “Antitussive Ratio” value in data set [1] (intravenous injection) came out at 0.44. The same compound showed an LD50 at 72 h in data set [2] of 268 mg/kg.
For `Cc1ccccc1NC(=NC1CCCCC1)c1ccccc1` [Compound 1, hydrochloric acid salt of N-cyclohexyl, N'-o-tolyl-benzamidine] the same measures were 1.73 and 242 mg/kg.
As for `CCc1ccccc1N=C(NC1CCCCC1)c1cccc(C)c1.Cl` [Compound 27, N-cyclohexyl, N'-o-ethylphenyl-m-toluamidine hydrochloride], the ED50 in data set [1] (setting [3]) was 5.15 mg/kg. The LD50 at 72 h in data set [2] is greater than 1000 mg/kg.
The matching figures for `Cc1ccccc1C(=NC1CCCCC1)Nc1cccc(C)c1C` [Compound 22, N-cyclohexyl, N'-2,3,-xylyl-o-toluamidine hydrochloride]: 3.58 mg/kg and greater than 1000 mg/kg.
With `COc1ccc(C(=Nc2ccccc2C)NC2CCCCC2)cc1.Cl` [Compound 39, N-cyclohexyl, N'-o-tolyl-p-anisamidine hydrochloride], the ED50 in data set [1] (setting [3]) came to 3.58 mg/kg. In data set [2], this compound came in with an LD50 at 72 h of 172 mg/kg.
As for `Cc1ccccc1C(=NC1CCCCC1)Nc1ccccc1` [Compound 18, N-cyclohexyl, N'-phenol-o-toluamidine hydrochloride], the ED50 in data set [1] (iv) came to 5.15 mg/kg. The compound also displayed an LD50 at 72 h in data set [2] of 740 mg/kg.
Take `COc1ccc(C(=Nc2ccccc2)NC2CCCCC2)cc1.Cl` [Compound 38, N-cyclohexyl, N'-phenyl-p-anisamidine hydrochloride]: the ED50 in data set [1] (setting [3]) was 2.98 mg/kg. Besides, the LD50 at 72 h in data set [2] came out at 120 mg/kg.
Consider `Cc1cccc(N=C(NC2CCCCC2)c2ccccc2C)c1.Cl` [Compound 20, N-cyclohexyl, N'-m-tolyl-o-toluamidine hydrochloride], for which, in data set [1] (iv), the ED50 came to 4.29 mg/kg. For the same compound, the LD50 at 72 h in data set [2] is greater than 100 mg/kg.
In the case of `COc1ccc2c(c1OC)C(=O)O[C@@H]2[C@H]1c2c(cc3c(c2OC)OCO3)CCN1C` [Compound 16, noscapine hydrochloride, reference compound], the “Antitussive Ratio” value in data set [1] (intravenous injection) is 0.24. Besides, in data set [2], the 50% lethal dose (LD50) at 72 h was determined as 240 mg/kg.
In the case of `COc1ccccc1N=C(NC1CCCCC1)c1cccc(C)c1.Cl` [Compound 23, N-cyclohexyl, N'-o-methoxyphenyl-m-toluamidine hydrochloride], in data set [1] (iv), the ED50 is 4.29 mg/kg. This compound yielded an LD50 at 72 h in data set [2] of 100 mg/kg.
For `COc1ccccc1C(=Nc1cccc(C)c1)NC1CCCCC1.Cl` [Compound 35, N-cyclohexyl, N'-m-tolyl-o-methoxy-benzamidine hydrochloride], in data set [1] (setting [3]), the ED50 is 5.15 mg/kg. For the same compound, the LD50 at 72 h in data set [2] is 144 mg/kg.
The matching figures for `CCc1ccccc1N=C(NC1CCCCC1)c1ccccc1.Cl` [Compound 42, N-cyclohexyl, N'-o-ethylphenyl-benzamidine hydrochloride]: 4.29 mg/kg and greater than 1000 mg/kg.
On to `Cc1ccc(C(=NC2CCCCC2)Nc2cccc(C)c2C)cc1` [Compound 31, N-cyclohexyl, N'-2,3,-xylyl-p-toluamidine hydrochloride], for which the ED50 in data set [1] (setting [3]) was determined as 2.07 mg/kg. The compound further returned a median lethal dose (LD50) at 72 h in data set [2] greater than 1000 mg/kg.
The matching figures for `COc1cccc(N=C(NC2CCCCC2)c2ccccc2OC)c1.Cl` [Compound 37, N-cyclohexyl, N'-m-methoxyphenyl-o-methoxybenzamidine hydrochloride]: 2.98 mg/kg and 207 mg/kg.
For `Cc1cccc(C)c1N=C(NC1CCCCC1)c1ccccc1.Cl` [Compound 45, N-cyclohexyl, N'-2,6-xylyl-benzamidine hydrochloride] the same measures were 4.29 mg/kg and 248 mg/kg.
With `Cc1cccc(NC(=NC2CCCCC2)c2cccc(C)c2)c1` [Compound 9, hydrochloric acid salt of N-cyclohexyl, N'-m-tolyl-m-toluamidine], in data set [1] (intravenous injection), the “Antitussive Ratio” value was 1.20. In data set [2], this compound displayed an LD50 at 72 h of 445 mg/kg.
Consider `Cc1ccc(C(=Nc2cccc(C)c2)NC2CCCCC2)cc1.Cl` [Compound 32, N-cyclohexyl, N'-m-tolyl-p-toluamidine hydrochloride], for which, in data set [1] (setting [3]), the ED50 was determined as 2.48 mg/kg. The compound further yielded an LD50 at 72 h in data set [2] of 460 mg/kg.
With `COc1ccc(C(=Nc2cccc(OC)c2)NC2CCCCC2)cc1.Cl` [Compound 41, N-cyclohexyl, N'-m-methoxyphenyl-p-anisamidine hydrochloride], in data set [1] (setting [3]), the ED50 turned out to be 2.98 mg/kg. This compound also showed an LD50 at 72 h in data set [2] of 248 mg/kg.
On to `Cc1cccc(C(=NC2CCCCC2)Nc2ccccc2)c1` [Compound 8, hydrochloric acid salt of N-cyclohexyl, N'-phenyl-m-toluamidine], for which, in data set [1] (intravenous injection), the “Antitussive Ratio” value is given as 1.20. Further, the LD50 at 72 h in data set [2] was determined as 276 mg/kg.
For `COc1ccc2c(c1)[C@]13CCCC[C@@H]1[C@H](C2)N(C)CC3` [Compound 15, dextrometrofan hydrobromide, reference compound] the same measures were 0.15 and 153 mg/kg.
With `CCc1ccccc1N=C(NC1CCCCC1)c1ccc(C)cc1.Cl` [Compound 30, N-cyclohexyl, N'-o-ethylphenyl-p-toluamidine hydrochloride], the ED50 in data set [1] (setting [3]) is 4.29 mg/kg. Also, the LD50 at 72 h in data set [2] is greater than 1000 mg/kg.
For the compound `COc1ccc(C(=Nc2cccc(C)c2)NC2CCCCC2)cc1.Cl` [Compound 40, N-cyclohexyl, N'-m-tolyl-p-anisamidine hydrochloride], the ED50 in data set [1] (setting [3]) is 2.48 mg/kg. This compound displayed an LD50 at 72 h in data set [2] of 298 mg/kg.
Turning to `Cc1ccc(C(=NC2CCCCC2)Nc2ccccc2)cc1` [Compound 10, hydrochloric acid salt of N-cyclohexyl, N'-phenyl-p-toluamidine], the “Antitussive Ratio” value in data set [1] (intravenous injection) is listed as 0.83. Also, in data set [2], the LD50 at 72 h came to 186 mg/kg.
With `COc1ccccc1C(=Nc1ccccc1)NC1CCCCC1.Cl` [Compound 34, N-cyclohexyl, N'-phenyl-o-methoxy-benzamidine hydrochloride], in data set [1] (setting [3]), the ED50 worked out at 3.58 mg/kg. The same compound returned an LD50 at 72 h in data set [2] of 100 mg/kg.
The matching figures for `Cc1ccc(N=C(NC2CCCCC2)c2cccc(C)c2)cc1.Cl` [Compound 25, N-cyclohexyl, N'-p-tolyl-m-toluamidine hydrochloride]: 4.29 mg/kg and 900 mg/kg.
With `COc1cccc(N=C(NC2CCCCC2)c2cccc(C)c2)c1.O=C(O)C(=O)O` [Compound 28, N-cyclohexyl, N'-m-methoxyphenyl-m-toluamidine oxalate], the ED50 in data set [1] (setting [3]) was 5.15 mg/kg. In data set [2], this compound registered an LD50 at 72 h of 743 mg/kg.
